In patent publication US20220183282A1, “Fatty Acid Derivatives For Improving The Effect Of Agrochemical Actives” (priority 2019, published 2022):

Assays:
apple leaf cuticles [1] = test: Penetration of Mesosulfuron-methyl through isolated apple leaf cuticles in the presence of test substances; format: in vitro ADME; details: for Mean penetration for Mesosulfuron-methyl after time: Mesosulfuron-methyl 0.1 g/L in spray liquid, 10° C./61% rel. air humidity
Source text: (§1) Surfactants can affect the absorption of (active) ingredients through membranes such as skin, films or the plant cuticle. As a “finite-dose” application, it is known for the single administration or application of a solution, cream, gel etc. to a membrane that the absorption of active ingredient can be influenced by some additives such as surfactants even after wetting.
(§2) The principle of the method has been published and described in detail e.g. in WO-A-2005/194844 or WO2017211572 A1). The leaf cuticles were enzymatically isolated in the manner described in the literature from apple leaves of orchard trees in a commercial stone fruit growing facility near Frankfurt am Main in 2017. The stomata-free cuticles were first dried under air and then installed into stainless steel diffusion cells. After application to the original upper side of the leaf and evaporation of the test liquid, i.e. of the spray liquids of the active ingredients with or without the inventive substances or comparative compositions, the diffusion cells were transferred into thermostated blocks and charged with aqueous liquid. The water used to make up the aqueous test liquids was local tap water (of known composition). At regular intervals, aliquot samples were taken and the proportion of active ingredient penetrated was determined by HPLC or alternatively by radio-chemical method where radio-labelled active ingredient was used as tracer to determine the concentration. During the experiment, the temperature in the system (block, diffusion cells, liquids, etc.) and the air humidity above the spray deposit on the cuticle were controlled. […] The analytical determination by means of HPLC (1290 Infinity, Agilent) was effected thereafter with a Kinetex column 30×2, 1 mm, 2.6μ C18 100 A (Phenomenex), taking a 20 μL aliquot as injection volume at the specified times. In each case, the geometric mean values of the penetration for intact membranes at the mean measurement times are given.

apple leaf cuticles [2] = test: Penetration of Milbemectin through isolated apple leaf cuticles in the presence of test substances; format: in vitro ADME; details: for Mean penetration for Milbemectin after time: Milbemectin 0.03 g/L in spray liquid
Source text: as §1
(§3) The principle of the method has been published and described in detail e.g. in WO-A-2005/194844 or WO2017211572 A1). The leaf cuticles were enzymatically isolated in the manner described in the literature from apple leaves of orchard trees in a commercial stone fruit growing facility near Frankfurt am Main in 2017. The stomata-free cuticles were first dried under air and then installed into stainless steel diffusion cells. After application to the original upper side of the leaf and evaporation of the test liquid, i.e. of the spray liquids of the active ingredients with or without the inventive substances or comparative compositions, the diffusion cells were transferred into thermostated blocks and charged with aqueous liquid. The water used to make up the aqueous test liquids was local tap water (of known composition). At regular intervals, aliquot samples were taken and the proportion of active ingredient penetrated was determined by HPLC or alternatively by radio-chemical method where radio-labelled active ingredient was used as tracer to determine the concentration. During the experiment, the temperature in the system (block, diffusion cells, liquids, etc.) and the air humidity above the spray deposit on the cuticle were controlled. In the experiment, relative air humidity was constant throughout at 56% relative air humidity (air over supersaturated calcium nitrate) at a constant 10° C. or 25° C. The analytical determination by means of HPLC (1290 Infinity, Agilent) was effected thereafter with a Kinetex column 30×2, 1 mm, 2.6μ C18 100 A (Phenomenex), taking a 20 μL aliquot as injection volume at the specified times. In each case, the geometric mean values of the penetration for intact membranes at the mean measurement times are given.

apple leaf cuticles [3] = test: Penetration of Imidacloprid through isolated apple leaf cuticles in the presence of test substances; details: for Mean penetration for Imidacloprid after time: Imidacloprid 0.5 g/L in spray liquid
Source text: as §1, §3

apple leaf cuticles [4] = test: Penetration of Flufenacet through isolated apple leaf cuticles in the presence of test substances; details: for Mean penetration for Flufenacet after time: Flufenacet 0.75 g/L in spray liquid, 10° C./61% rel. air humidity
Source text: as §1, §2

apple leaf cuticles [5] = test: Penetration of Mesotrione through isolated apple leaf cuticles in the presence of test substances
Source text: as §1
as §3, with “In each case, the geometric mean values of the penetration for intact membranes at the mean measurement times are given.” left out

[6] = Dynamic surface tension, bubble pressure method (BP2100 tensiometer, Krüss); format: physicochemical
Procedure: Dynamic surface tension was determined via the bubble pressure method (BP2100 tensiometer, Krüss). Given a timespan of relevance for the spray application of agrochemicals in aqueous dilution (called the surface age in the bubble pressure method) of 200 milliseconds (ms), the value for dynamic surface tension in [mN/m] correlates with the adhesion on plants that are difficult to wet, such as barley (cereal). A value of 50 mN/m (at 20-21° C.) with respect to water (72.8 mN/m) results in an improvement in the adhesion from “zero adhesion” (0%) to about 50% (Baur P., Pontzen R.; 2007; Basic features of plant surface wettability and deposit formation and the impact of adjuvant; in R. E. Gaskin ed. Proceedings of the 8th International Symposium on Adjuvants for Agrochemicals; Publisher: International Society for Agrochemical Adjuvants (ISAA), Columbus, Ohio, USA).

apple leaf cuticles [7] = test: Penetration of lodosulfuron-methyl through isolated apple leaf cuticles in the presence of test substances; format: in vitro ADME; details: for Mean penetration for lodosulfuron-methyl after time: lodosulfuron-methyl 0.1 g/L in spray liquid, 10° C./61% rel. air humidity
Source text: as §1, §2

apple leaf cuticles [8] = test: Penetration of MCPA through isolated apple leaf cuticles in the presence of test substances; details: for Mean penetration for MCPA after time: MCPA 1.5 g/L in spray liquid, 25° C./56% rel. air humidity
Source text: as §1, §3

CCCCCCCCC(=O)OCCOCCOCCOCCOCCOCCOC [A1, Pelargonic acid 6 EO ester methyl ether]
Mean penetration for Mesosulfuron-methyl after time (apple leaf cuticles [1]; test substance 1.0 g/L, 1 day): 1.9% | Mean penetration for Mesosulfuron-methyl after time (apple leaf cuticles [1]; test substance 1.0 g/L, 2 days): 3.6% | Mean penetration for Mesosulfuron-methyl after time (apple leaf cuticles [1]; test substance 3.0 g/L, 1 day): 4.2% | Mean penetration for Mesosulfuron-methyl after time (apple leaf cuticles [1]; test substance 3.0 g/L, 2 days): 5.2% | Mean penetration for Mesosulfuron-methyl after time (apple leaf cuticles [1]; test substance 10 g/L, 1 day): 9.2% | Mean penetration for Mesosulfuron-methyl after time (apple leaf cuticles [1]; test substance 10 g/L, 2 days): 10.9% | uptake of the active ingredient (Mesosulfuron-methyl), in words (apple leaf cuticles [1]; summary of Table 5): strongly increases the uptake | Mean penetration for Milbemectin after time (apple leaf cuticles [2]; test substance 1.5 g/L, 1 day): 4.3% | Mean penetration for Milbemectin after time (apple leaf cuticles [2]; test substance 1.5 g/L, 2 days): 4.2% | Mean penetration for Milbemectin after time (apple leaf cuticles [2]; test substance 3.0 g/L, 1 day): 4.7% | Mean penetration for Milbemectin after time (apple leaf cuticles [2]; test substance 3.0 g/L, 2 days): 5.4% | uptake of the agrochemical active (Milbemectin), in words (apple leaf cuticles [2]; summary of Table 9, compared to the commercial formulation): strongly increases the uptake | Mean penetration for Imidacloprid after time (apple leaf cuticles [3]; test substance 0.3 g/L, 1 day): 2.8% | Mean penetration for Imidacloprid after time (apple leaf cuticles [3]; test substance 0.3 g/L, 4 days): 3.8% | Mean penetration for Imidacloprid after time (apple leaf cuticles [3]; test substance 1.0 g/L, 1 day): 31.7% | Mean penetration for Imidacloprid after time (apple leaf cuticles [3]; test substance 1.0 g/L, 4 days): 38.2% | uptake of the agrochemical active (Imidacloprid), in words (apple leaf cuticles [3]; summary of Table 8): strongly increases the uptake | Mean penetration for Flufenacet after time (apple leaf cuticles [4]; test substance 1.0 g/L, 1 day): 10.7% | Mean penetration for Flufenacet after time (apple leaf cuticles [4]; test substance 1.0 g/L, 2 days): 16.9% | Mean penetration for Flufenacet after time (apple leaf cuticles [4]; test substance 10 g/L, 1 day): 18.2% | Mean penetration for Flufenacet after time (apple leaf cuticles [4]; test substance 10 g/L, 2 days): 28.0% | uptake of the active ingredient (Flufenacet), in words (apple leaf cuticles [4]; summary of Table 4, compared to the commercial formulation): strongly increases the uptake | uptake of the active ingredient (Mesotrione), in words (apple leaf cuticles [5]): increases the uptake | Dynamic Surface tension ([6]; 0.3 g/L, 20 ms): 61.2 mN/m | Dynamic Surface tension ([6]; 0.3 g/L, 50 ms): 57.3 mN/m | Dynamic Surface tension ([6]; 0.3 g/L, 100 ms): 54.4 mN/m | Dynamic Surface tension ([6]; 0.3 g/L, 200 ms): 51.5 mN/m | Dynamic Surface tension ([6]; 1 g/L, 20 ms): 47.6 mN/m | Dynamic Surface tension ([6]; 1 g/L, 50 ms): 44.5 mN/m | Dynamic Surface tension ([6]; 1 g/L, 100 ms): 42.1 mN/m | Dynamic Surface tension ([6]; 1 g/L, 200 ms): 39.8 mN/m | Dynamic Surface tension ([6]; 3 g/L, 20 ms): 33.7 mN/m | Dynamic Surface tension ([6]; 3 g/L, 50 ms): 32.0 mN/m | Dynamic Surface tension ([6]; 3 g/L, 100 ms): 30.8 mN/m | Dynamic Surface tension ([6]; 3 g/L, 200 ms): 29.5 mN/m | Dynamic Surface tension ([6]; 10 g/L, 20 ms): 30.2 mN/m | Dynamic Surface tension ([6]; 10 g/L, 50 ms): 29.3 mN/m | Dynamic Surface tension ([6]; 10 g/L, 100 ms): 28.6 mN/m | Dynamic Surface tension ([6]; 10 g/L, 200 ms): 27.9 mN/m | Mean penetration for lodosulfuron-methyl after time (apple leaf cuticles [7]; test substance 0.3 g/L, 1 day): 1.0% | Mean penetration for lodosulfuron-methyl after time (apple leaf cuticles [7]; test substance 0.3 g/L, 2 days): 1.5% | Mean penetration for lodosulfuron-methyl after time (apple leaf cuticles [7]; test substance 1.0 g/L, 1 day): 2.3% | Mean penetration for lodosulfuron-methyl after time (apple leaf cuticles [7]; test substance 1.0 g/L, 2 days): 3.3% | Mean penetration for lodosulfuron-methyl after time (apple leaf cuticles [7]; test substance 3.0 g/L, 1 day): 7.6% | Mean penetration for lodosulfuron-methyl after time (apple leaf cuticles [7]; test substance 3.0 g/L, 2 days): 8.8% | uptake of the active ingredient (lodosulfuron-methyl), in words (apple leaf cuticles [7]; summary of Table 6): strongly increases the uptake | Mean penetration for MCPA after time (apple leaf cuticles [8]; test substance 0.3 g/L, 0.5 day): 34.2% | Mean penetration for MCPA after time (apple leaf cuticles [8]; test substance 0.3 g/L, 1 day): 45.5% | Mean penetration for MCPA after time (apple leaf cuticles [8]; test substance 1.0 g/L, 0.5 day): 46.9% | Mean penetration for MCPA after time (apple leaf cuticles [8]; test substance 1.0 g/L, 1 day): 53.9% | uptake of the active ingredient (MCPA), in words (apple leaf cuticles [8]; summary of Table 3): strongly increases the uptake
